Measurements as given in patent publication US10123993B2, “Cyclic ureas as inhibitors of rock” (BRISTOL-MYERS SQUIBB COMPANY, priority 2015, dated 2018).
Read-outs that look alike come from different tables or passages of the source.

Legend:
ROCK2 = ROCK2 (Homo sapiens, UniProt O75116); test: ROCK2 kinase inhibition assay (Caliper LABCHIP, FITC peptide substrate); type: biochemical; conditions: 5 μM ATP, 1.5 μM peptide substrate; value ranges
Outline: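 Dose-response curves gave IC50 from inhibition of peptide phosphorylation, measured by LabChip separation after EDTA stop. Reactions used 1.5 μM FITC-labelled peptide, 5 μM ATP, 20 mM HEPES pH 7.5 with MgCl2, Brij-35, DTT, and under 2% DMSO.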

[1] = test system: spontaneously hypertensive rat, renal hypertensive rat and deoxycortisone acetate salt hypertensive rat models; conditions: cited from earlier work
[2] = test system: neointimal formation in rats; conditions: cited from earlier work
Dahl salt-sensitive rats = conditions: rat, in vivo; cited from earlier work
[3] = test system: IL-1 beta-induced coronary stenosis; conditions: long term treatment; cited from earlier work
rat stroke model = conditions: in vivo; cited from earlier work

Chain of ROCK2 (O75116 whole entry, species assumed): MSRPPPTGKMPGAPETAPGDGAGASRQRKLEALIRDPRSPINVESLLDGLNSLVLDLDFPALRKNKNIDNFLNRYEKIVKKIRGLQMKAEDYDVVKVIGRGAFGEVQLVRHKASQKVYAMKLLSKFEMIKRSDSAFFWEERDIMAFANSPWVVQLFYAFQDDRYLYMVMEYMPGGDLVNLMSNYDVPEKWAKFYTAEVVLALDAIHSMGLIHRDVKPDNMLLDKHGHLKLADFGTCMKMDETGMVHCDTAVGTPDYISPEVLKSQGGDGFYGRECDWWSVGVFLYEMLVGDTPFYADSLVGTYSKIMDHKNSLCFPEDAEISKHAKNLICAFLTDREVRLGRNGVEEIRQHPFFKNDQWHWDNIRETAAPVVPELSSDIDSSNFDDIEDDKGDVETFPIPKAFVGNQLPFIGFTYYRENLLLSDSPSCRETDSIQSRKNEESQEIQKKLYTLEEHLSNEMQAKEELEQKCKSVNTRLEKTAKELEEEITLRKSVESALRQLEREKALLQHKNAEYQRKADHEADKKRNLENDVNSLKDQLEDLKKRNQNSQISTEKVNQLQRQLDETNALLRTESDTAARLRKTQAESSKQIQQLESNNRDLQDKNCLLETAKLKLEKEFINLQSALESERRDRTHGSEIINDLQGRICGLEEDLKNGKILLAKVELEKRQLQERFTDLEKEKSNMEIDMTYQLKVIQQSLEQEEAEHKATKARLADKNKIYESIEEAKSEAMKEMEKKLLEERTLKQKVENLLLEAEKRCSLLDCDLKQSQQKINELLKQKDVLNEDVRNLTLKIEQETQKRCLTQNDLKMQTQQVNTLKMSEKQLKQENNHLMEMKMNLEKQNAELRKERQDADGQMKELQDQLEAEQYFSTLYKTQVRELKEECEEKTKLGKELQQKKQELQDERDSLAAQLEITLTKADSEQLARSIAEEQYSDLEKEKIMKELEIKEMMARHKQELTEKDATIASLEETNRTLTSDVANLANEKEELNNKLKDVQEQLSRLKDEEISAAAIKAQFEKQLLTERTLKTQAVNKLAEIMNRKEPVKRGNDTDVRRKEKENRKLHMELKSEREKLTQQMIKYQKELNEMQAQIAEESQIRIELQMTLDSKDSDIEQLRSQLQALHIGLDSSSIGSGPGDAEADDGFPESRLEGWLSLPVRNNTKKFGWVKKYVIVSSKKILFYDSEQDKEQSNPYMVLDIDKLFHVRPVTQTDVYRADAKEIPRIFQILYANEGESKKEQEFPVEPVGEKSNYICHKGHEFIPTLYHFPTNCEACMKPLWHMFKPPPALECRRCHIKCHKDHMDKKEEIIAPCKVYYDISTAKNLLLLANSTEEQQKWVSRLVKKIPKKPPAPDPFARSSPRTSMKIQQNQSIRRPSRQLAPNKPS

COc1cc(Cn2ccn(-c3ccc(-c4cn[nH]c4)c(OC)n3)c2=O)ccc1F [Example 477, 1-(4-fluoro-3-methoxybenzyl)-3-(6-methoxy-5-(1H-pyrazol-4-yl)pyridin-2-yl)-1H-imidazol-2(3H)-one]
IC50 (ROCK2): < 2 nM

COc1cc(F)cc(Cn2ccn(-c3ccc(-c4cn[nH]c4)c(OC)n3)c2=O)c1 [Example 478, 1-(3-fluoro-5-methoxybenzyl)-3-(6-methoxy-5-(1H-pyrazol-4-yl)pyridin-2-yl)-1H-imidazol-2(3H)-one]
IC50 (ROCK2): < 2 nM

C[C@@H](N)[C@H]1CC[C@H](C(=O)Nc2ccncc2)CC1 [Example Y-27632]
blood pressure ([1]; control rats): only a minor effect on blood pressure | blood pressure ([1]; three rat models of hypertension): significantly decrease blood pressure | neointimal formation [2]: inhibited neointimal formation | ventricular hypertrophy, fibrosis and function (Dahl salt-sensitive rats): improve ventricular hypertrophy, fibrosis and function

COc1cccc(C(C)(C(N)=O)N2CCN(c3ccc(-c4cn[nH]c4)cc3)C2=O)c1 (stereo not shown) [compound 306, 2-(3-(4-(1H-pyrazol-4-yl)phenyl)-2-oxoimidazolidin-1-yl)-2-(3-methoxyphenyl)propanamide]
IC50 (ROCK2): 20.1 to 200 nM

O=S(=O)(c1cccc2cnccc12)N1CCCNCC1 [fasudil]
coronary constrictive remodeling [3]: promote a regression of coronary constrictive remodeling | coronary stenosis [3]: progressively reduce coronary stenosis | infarct size and neurologic deficit (rat stroke model): reduce both the infarct size and neurologic deficit
